Experimental data taken from US11141406B2, “Pharmaceutical compounds” (REVIRAL LIMITED, priority 2017, dated 2021).

Assays:
RSV A2 VR-1540 = assay: RSV plaque reduction assay, typical conditions (HEp-2 cells); assay type: cell-based; conditions: human respiratory syncytial virus; for IC90: typical protocol, read-out: RSV Plaque Reduction Assay Strain A2 IC90; for IC50: †: typical protocol, n = 1, read-out: RSV Plaque Reduction Assay Strain A2 IC50
Method: The plaque reduction assay was typically performed as follows. HEp-2 cells (ATCC, CCL23) were passaged in flasks and seeded in 96-well plates in DMEM containing antibiotics and supplemented with 10% FBS. During inoculation and subsequent incubation, cells were cultured in DMEM containing 3% FBS. 100 plaque forming unit (PFU)/well of RSV (RSV A2 VR-1540) was mixed with ten serial dilutions of compound. Subsequently, 100 μL of the virus/compound mixtures was added to confluent HEp-2 cell monolayers. The cells and virus/compound mixtures were incubated at 35° C. in a humidified 5% CO2 incubator for 1 day.
Cells were washed twice with PBS before adding 50% v % v EtOH/MeOH, and then stored at −20° C. On the day of the staining, fixative was first removed from the plates. Plates were washed 3× with PBS. A pre-titrated amount of the primary antibody was added in 60 μL PBS/2% milk powder, and plates incubated for 1 h at rt. The plates were washed 3× with PBS/0.05% Tween20 before addition of goat anti-mouse horse radish peroxidase in 60 μL PBS/2% milk powder, and incubated for 1 h at rt. Following three wash steps with PBS/0.05% Tween20, 60 μL ready-to-use TrueBlue was added and plates were incubated at it for 10-15 min before adding MilliQ water. Plates were washed once with water, incubated for 30-60 min and after removal of water, air-dried in the dark.
(§1) Plates were scanned and analyzed using the Immunospot S6 UV analyzer, which is equipped with BioSpot analysis software for counting immunostained plaques (virospots). Plaque counts were used to calculate % infection relative to the mean of the spot count (SC) in the virus control wells for RSV. IC50/IC90 values were calculated as 50% or 90% reduction in signal, respectively, by interpolation of inhibition curves fitted with a 4-parameter nonlinear regression with a variable slope in GraphPad 5.0 (Prism). Alternatively, where noted the plaque reduction assay was performed as follows. Hep G2 cells (ECACC, 85011430) were passaged in flasks and seeded in 12-well plates in DMEM containing antibiotics and supplemented with 10% FBS, 24 h prior to inoculation. During inoculation and subsequent incubation, cells were cultured in DMEM containing 2% FBS. 75 plaque forming unit (PFU)/well of RSV (RSV A2, 0709161v) was mixed with 8 serial dilutions of compound. Subsequently, 200 μL of the virus/compound mixtures was added to confluent Hep G2 cell monolayers, for a 2 h infection, with manual shaking every 15 min. Infectious supernatant was then removed and replaced with 2 mL of overlay, comprising 4 parts of DMEM+2% FBS and 1 part 4% CMC, with 0.25% DMSO. The cells were incubated at 37° C. in a humidified 5% CO2 incubator for 5 days.

RSV A2, 0709161v = assay: RSV plaque reduction assay, alternative conditions (Hep G2 cells); assay type: cell-based; conditions: human respiratory syncytial virus, HepG2, mean of at least 2 independent experiments, read-out: RSV Plaque Reduction Assay Strain A2 IC50
Method: as §1
Overlay was removed, and cells were washed with PBS before fixing with a mixture of 75% acetone 25% methanol for 3 minutes and replacing with fresh PBS. […] Staining was carried out whilst shaking at 37° C. First the plates were blocked with 500 uL PBS-T/2% milk powder per well, for 1 hr. This was then replaced with 250 uL PBS-T/2% milk powder containing a pre-titrated amount of the primary antibody (ab1128), for 90 min. The plates were washed 3×5 min with PBS-T, before addition of rabbit anti-goat horse radish peroxidase (AP106P) in 250 μL PBS-T/2% milk powder, and incubated for 1 hr. […]
Plates were scanned and analysed using the Immunospot S6 Macro analyzer, which is equipped with BioSpot analysis software for counting immunostained plaques. […]

| Structure (SMILES) | IC90 (RSV A2 VR-1540) [nM] | IC50 (RSV A2 VR-1540) [nM] | IC50 (RSV A2, 0709161v) [nM] |
| --- | --- | --- | --- |
| CS(=O)(=O)CCCn1c(CN2C(=O)C(F)(F)c3ccccc32)nc2cc(Cl)ccc21 [Compound 5, 1-{[5-Chloro-1-(3-methanesulfonylpropyl)-1H-1,3-benzodiazol-2-yl]methyl}-3,3-difluoro-2,3-dihydro-1H-indol-2-one] | 4.4 | 1.4 |  |
| CCS(=O)(=O)N1CCC(n2c(CN3C(=O)C(F)(F)c4ccccc43)nc3cc(Cl)ccc32)CC1 [Compound 9, 1-({5-Chloro-1-[1-(ethanesulfonyl)piperidin-4-yl]-1H-1,3-benzodiazol-2-yl}methyl)-3,3-difluoro-2,3-dihydro-1H-indol-2-one] |  |  | 12.6 |
| O=C1N(Cc2nc3cc(Cl)ccc3n2C2CCOCC2)c2ccccc2C1(F)F [Compound 10, 1-{[5-Chloro-1-(oxan-4-yl)-1H-1,3-benzodiazol-2-yl]methyl}-3,3-difluoro-2,3-dihydro-1H-indol-2-one] | 53 | 6.4 |  |
| CC(C)CCn1c(CN2C(=O)C(F)(F)c3ccccc32)nc2cc(CN)ccc21 [Compound 13, 1-{[5-(Aminomethyl)-1-(3-methylbutyl)-1H-1,3-benzodiazol-2-yl]methyl}-3,3-difluoro-2,3-dihydro-1H-indol-2-one] |  |  | 4.1 |
